Reference: PubChem BioAssay (NCI)
Values joined by “and” are separate entries in the source; they are usually repeats but may differ in a detail not shown here. Equal values may be shown once.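 A five-concentration, 48-hour dose response in 96-well plates underlies each endpoint, interpolated linearly between surrounding concentrations. At the GI50, growth is halved. Definition used: TGI = concentration required for complete inhibition of growth.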

Experiments:
Assay in all cases: inhibition of tumour cell growth, NCI panel, 48 h
MCF7 breast = system: MCF7 breast
HS 578T breast = system: HS 578T breast
OVCAR-4 ovarian = system: OVCAR-4 ovarian
PC-3 prostate = system: PC-3 prostate
BT-549 breast = system: BT-549 breast
T-47D breast = system: T-47D breast

SMILES | GI50 (MCF7 breast) | TGI (MCF7 breast) | GI50 (HS 578T breast) | TGI (HS 578T breast) | GI50 (OVCAR-4 ovarian) | TGI (OVCAR-4 ovarian) | GI50 (PC-3 prostate) | TGI (PC-3 prostate) | GI50 (BT-549 breast) | TGI (BT-549 breast) | GI50 (T-47D breast) | TGI (T-47D breast)
O=C1NC(=O)C(c2cnc3ccccn23)=C1c1cn2c3c(cc(F)cc13)CN(C(=O)N1CCCCC1)CC2 | < 0.01 µM | 21.1 µM | 0.0115 µM | 60.9 µM | 1.5 µM | > 63.4 µM | 4.17 µM | 41.8 µM | 14.7 µM | 45 µM | 9.79 µM | > 69.2 µM
Cn1c2ccccc2c2c3c(c4c5cc(Br)ccc5n(C)c4c21)C(=O)N(O)C3=O | 0.0579 µM | > 100 µM | 1.09 µM | > 100 µM | – | – | 0.497 µM | > 100 µM | – | – | – | –
CC(C)CCN1c2nc(Nc3cc(F)c(O)c(F)c3)ncc2N(C)C(=O)C1C (configuration not stated) | 2.85 µM | 18.1 µM | 3.22 µM | 32.1 µM | 18.6 µM | > 100 µM | – | – | 5.66 µM | > 67.7 µM | 6.36 µM | 25.9 µM
[Cl][Hg][c]1cc(Br)cc(Br)c1 | – | – | 1.58 µM | 7.07 µM | 2.31 µM | 7.69 µM | 2.16 µM | 7.2 µM | 1.95 µM | 5.47 µM | 2 µM | 7.88 µM
O=C(O)CCC(=O)c1ccc[nH]1 | – | > 100 µM | – | > 100 µM | – | > 100 µM | – | > 100 µM | – | > 100 µM | – | > 100 µM
C=C1C(=O)O[C@@H]2C[C@@H]1CC/C(C)=C/CC/C(C)=C/CC[C@@]2(C)O | 11.9 µM | 36.2 µM | 28.5 µM | 72.4 µM | 34.6 µM | > 100 µM | 6.73 µM | 21.3 µM | 21.1 µM | 40.4 µM | 34.2 µM | > 100 µM
CC(C)=CCNc1ncnc2c1ncn2C1OC(CO)C(O)C1O (configuration not stated) | 0.624 µM | 12.3 µM | 0.684 µM | 4.33 µM | 0.793 µM | > 1000 µM | 0.616 µM | 31 µM | 0.57 µM | 2.8 µM | 0.983 µM | 3.92 µM
N#CC(=C1C=CC(=NO)C=C1)c1ccccc1 | 0.319 µM | 11.6 µM | 2.39 µM | 6.68 µM | 3.02 µM | 15.4 µM | 0.671 µM | 17 µM | 2.42 µM | 11.6 µM | 0.47 µM | 2.99 µM
Cn1cc(CO)c2c1C(=O)C=C(N1CC1)C2=O | < 0.01 µM | – | 0.017 µM | 0.0472 µM | 0.0256 µM | 0.0917 µM | 0.0153 µM | 0.128 µM | < 0.0128 µM | 0.133 µM | 0.353 µM | 7.81 µM
OC[C@H]1C[C@](O)(c2ccc(Cl)cc2)[C@@H](c2ccc(Cl)cc2)O1 | 30 µM | 72.8 µM | 18 µM | 45.6 µM | 32 µM | > 100 µM | 19.8 µM | 57.5 µM | 16.8 µM | 34.6 µM | – | –
CCN(CC)c1ccc2c(c1)OC(N)=C(C#N)C2c1cc(OC)c2c(c1)OCO2 (configuration not stated) | 0.0294 µM | 11.5 µM | 0.0167 µM | 0.409 µM | 0.0754 µM | > 48.6 µM | 0.0309 µM | > 100 µM | 0.0661 µM | 0.455 µM | 3.32 µM | 22 µM
Cc1cc(I)cc(CN(C)CCCN2CCCCCCC2)c1O | 14.2 µM | 30.6 µM | 15.7 µM | 33.7 µM | 19.7 µM | 58.5 µM | 15.8 µM | 32.7 µM | 13.1 µM | 26.7 µM | 19.6 µM | 52.8 µM
CCN(CC)CCOc1ccc(-c2nc3cc(Cl)ccc3s2)cc1 | 1.45 µM | 2.83 µM | 1.62 µM | 3.72 µM | 1.65 µM | 7.21 µM | 1.74 µM | 4.61 µM | 1.83 µM | 5.73 µM | 1.5 µM | 4.11 µM
Cc1c([N+](=O)[O-])ccc2c(NCCCN(C)C)ccnc12 | – | 37.2 µM | – | 74.1 µM | – | 41 µM | – | 41.6 µM | – | 36.2 µM | – | 76.5 µM
CCN(CC)CCCC(CNc1ccnc2cc(Cl)ccc12)c1ccc(Cl)cc1 (configuration not stated) | 1.31 µM and 1.24 µM | 3.15 µM and 2.71 µM | 1.76 µM and 1.97 µM | 3.82 µM and 4.46 µM | 1.07 µM and 1.04 µM | 4.28 µM and 3.36 µM | 3.51 µM and 2.45 µM | 13.2 µM and 10.2 µM | 1.79 µM and 1.75 µM | 3.79 µM and 3.38 µM | 1.64 µM and 2.06 µM | 3.42 µM and 4.02 µM
Cn1nc(N)c2cc([C@@H]3Nc4ccc5[nH]ncc5c4[C@H]4C5CCC(C5)[C@@H]34)ccc21 (some centres not stated) | 0.327 µM | 18.4 µM | 0.373 µM | 43.4 µM | 2.67 µM | > 95 µM | 0.418 µM | 19.8 µM | 1.01 µM | 12.3 µM | 0.471 µM | 58.8 µM
Cc1ccc(C)c(C2=C(c3cn(C)c4ccccc34)C(=O)NC2=O)c1 | 6.81 µM | > 25 µM | > 25 µM | > 25 µM | > 25 µM | > 25 µM | 13.8 µM | > 25 µM | > 25 µM | > 25 µM | 14 µM | > 25 µM
CC(=O)Nc1ccc(C(=O)NN2C(=O)CSC2c2ccc([N+](=O)[O-])cc2)cc1 (configuration not stated) | – | > 100 µM | – | > 100 µM | – | > 100 µM | – | – | – | – | – | > 100 µM
Clc1nc2ccccc2nc1CI | 2.79 µM | 11.9 µM | 12.7 µM | 77.6 µM | 5.34 µM | 18.3 µM | 8.81 µM | 22.5 µM | 6.13 µM | 18.2 µM | 2.5 µM | 6.76 µM
Cc1nc2c(-c3cnc(N)nc3)nc(N3CCOCC3)nc2n1C(C)C | 0.0876 µM and 0.0298 µM | > 100 µM | – | 0.578 µM and 0.199 µM | – | 1.99 µM and 0.786 µM | – | > 100 µM | – | 2.22 µM | – | 0.251 µM and 0.102 µM
CCN1CCN(C(c2ccc(C(F)(F)F)cc2)c2ccc3cccnc3c2O)CC1 (configuration not stated) | 3.46 µM | 14.9 µM | – | – | 2.36 µM | 14.3 µM | 0.361 µM | 17.6 µM | 1.4 µM | 11.6 µM | 4.19 µM | 15.2 µM
